± gives the expanded uncertainty stated by the source.
Settings: Liquid; for mass density: Vibrating tube method; for vapor or sublimation pressure: Closed cell (Static) method

## FC(F)=C(F)C(F)(F)F [hexafluoropropene]
323.37 K, 3190.6 kPa
  mass density: 1208.65 ± 1.2 kg/m3
323.37 K, 3233.2 kPa
  mass density: 1209.26 ± 1.2 kg/m3
323.37 K, 3274 kPa
  mass density: 1209.98 ± 1.2 kg/m3
323.37 K, 3319.3 kPa
  mass density: 1210.67 ± 1.2 kg/m3
323.37 K, 3363.9 kPa
  mass density: 1211.37 ± 1.2 kg/m3
323.37 K, 3409 kPa
  mass density: 1212.2 ± 1.2 kg/m3
323.37 K, 3453.1 kPa
  mass density: 1212.75 ± 1.2 kg/m3
323.37 K, 3494.3 kPa
  mass density: 1213.56 ± 1.2 kg/m3
323.37 K, 3536.1 kPa
  mass density: 1214.13 ± 1.2 kg/m3
323.37 K, 3576.1 kPa
  mass density: 1214.83 ± 1.3 kg/m3
323.37 K, 3614.3 kPa
  mass density: 1215.37 ± 1.2 kg/m3
323.37 K, 3655.5 kPa
  mass density: 1215.99 ± 1.3 kg/m3
323.37 K, 3696.8 kPa
  mass density: 1216.59 ± 1.2 kg/m3
323.37 K, 3734.8 kPa
  mass density: 1217.22 ± 1.2 kg/m3
323.37 K, 3774.4 kPa
  mass density: 1217.9 ± 1.2 kg/m3
323.37 K, 3814.2 kPa
  mass density: 1218.51 ± 1.3 kg/m3
323.37 K, 3853.1 kPa
  mass density: 1219.11 ± 1.2 kg/m3
323.37 K, 3890.4 kPa
  mass density: 1219.71 ± 1.2 kg/m3
323.37 K, 3929.4 kPa
  mass density: 1220.24 ± 1.3 kg/m3
323.37 K, 3968.3 kPa
  mass density: 1220.84 ± 1.3 kg/m3
323.37 K, 4008.7 kPa
  mass density: 1221.41 ± 1.3 kg/m3
323.37 K, 4049.2 kPa
  mass density: 1222.01 ± 1.2 kg/m3
323.37 K, 4086.5 kPa
  mass density: 1222.57 ± 1.3 kg/m3
323.37 K, 4125.9 kPa
  mass density: 1223.19 ± 1.3 kg/m3
323.37 K, 4203.9 kPa
  mass density: 1224.27 ± 1.2 kg/m3
323.37 K, 4242.8 kPa
  mass density: 1224.81 ± 1.3 kg/m3
323.37 K, 4283.2 kPa
  mass density: 1225.52 ± 1.3 kg/m3
323.37 K, 4323.7 kPa
  mass density: 1226 ± 1.3 kg/m3
323.37 K, 4365 kPa
  mass density: 1226.67 ± 1.3 kg/m3
323.37 K, 4405.1 kPa
  mass density: 1227.17 ± 1.3 kg/m3
323.37 K, 4444.7 kPa
  mass density: 1227.66 ± 1.2 kg/m3
323.37 K, 4485 kPa
  mass density: 1228.31 ± 1.3 kg/m3
323.37 K, 4510.8 kPa
  mass density: 1228.65 ± 1.3 kg/m3
323.37 K, 4561.5 kPa
  mass density: 1229.42 ± 1.3 kg/m3
323.37 K, 4618.8 kPa
  mass density: 1230.22 ± 1.3 kg/m3
323.37 K, 4671.5 kPa
  mass density: 1230.85 ± 1.3 kg/m3
323.37 K, 4727.5 kPa
  mass density: 1231.69 ± 1.3 kg/m3
323.37 K, 4782 kPa
  mass density: 1232.28 ± 1.3 kg/m3
323.37 K, 4834 kPa
  mass density: 1233.09 ± 1.3 kg/m3
323.37 K, 4887.1 kPa
  mass density: 1233.93 ± 1.3 kg/m3
323.37 K, 4938.4 kPa
  mass density: 1234.66 ± 1.3 kg/m3
323.37 K, 4991 kPa
  mass density: 1235.13 ± 1.3 kg/m3
323.37 K, 5040.4 kPa
  mass density: 1235.89 ± 1.3 kg/m3
323.37 K, 5097.9 kPa
  mass density: 1236.56 ± 1.3 kg/m3
323.37 K, 5155.7 kPa
  mass density: 1237.37 ± 1.3 kg/m3
323.37 K, 5211.3 kPa
  mass density: 1238.02 ± 1.3 kg/m3
323.37 K, 5267.7 kPa
  mass density: 1238.8 ± 1.3 kg/m3
323.37 K, 5326.8 kPa
  mass density: 1239.64 ± 1.3 kg/m3
323.37 K, 5386 kPa
  mass density: 1240.28 ± 1.3 kg/m3
323.37 K, 5440.9 kPa
  mass density: 1241.12 ± 1.3 kg/m3
323.37 K, 5498.8 kPa
  mass density: 1241.79 ± 1.3 kg/m3
323.37 K, 5518.2 kPa
  mass density: 1242.1 ± 1.3 kg/m3
323.37 K, 5575.5 kPa
  mass density: 1242.7 ± 1.3 kg/m3
323.37 K, 5631.7 kPa
  mass density: 1243.39 ± 1.3 kg/m3
323.37 K, 5693 kPa
  mass density: 1244.16 ± 1.3 kg/m3
323.37 K, 5751.8 kPa
  mass density: 1244.98 ± 1.3 kg/m3
323.37 K, 5808.1 kPa
  mass density: 1245.67 ± 1.3 kg/m3
323.37 K, 5864.8 kPa
  mass density: 1246.37 ± 1.3 kg/m3
323.37 K, 5921.9 kPa
  mass density: 1247.09 ± 1.3 kg/m3
323.37 K, 5977.9 kPa
  mass density: 1247.78 ± 1.3 kg/m3
323.37 K, 6035 kPa
  mass density: 1248.49 ± 1.3 kg/m3
323.37 K, 6091.4 kPa
  mass density: 1249 ± 1.3 kg/m3
323.37 K, 6150.7 kPa
  mass density: 1249.77 ± 1.3 kg/m3
323.37 K, 6208.1 kPa
  mass density: 1250.43 ± 1.3 kg/m3
323.37 K, 6265.4 kPa
  mass density: 1251.23 ± 1.3 kg/m3
323.37 K, 6323.2 kPa
  mass density: 1251.69 ± 1.3 kg/m3
323.37 K, 6380.6 kPa
  mass density: 1252.41 ± 1.3 kg/m3
323.37 K, 6438.3 kPa
  mass density: 1253.13 ± 1.3 kg/m3
323.37 K, 6494.6 kPa
  mass density: 1253.91 ± 1.3 kg/m3
323.37 K, 6551.8 kPa
  mass density: 1254.4 ± 1.3 kg/m3
323.37 K, 6606.9 kPa
  mass density: 1255.07 ± 1.3 kg/m3
323.37 K, 6663.3 kPa
  mass density: 1255.73 ± 1.3 kg/m3
323.37 K, 6721.4 kPa
  mass density: 1256.27 ± 1.3 kg/m3
323.37 K, 6837.9 kPa
  mass density: 1257.77 ± 1.3 kg/m3
323.37 K, 6894.2 kPa
  mass density: 1258.24 ± 1.3 kg/m3
323.37 K, 6952.1 kPa
  mass density: 1259 ± 1.3 kg/m3
323.37 K, 7008.2 kPa
  mass density: 1259.55 ± 1.3 kg/m3
323.37 K, 7067.2 kPa
  mass density: 1260.31 ± 1.3 kg/m3
323.37 K, 7126.4 kPa
  mass density: 1260.79 ± 1.3 kg/m3
323.37 K, 7183.6 kPa
  mass density: 1261.47 ± 1.3 kg/m3
323.37 K, 7241.8 kPa
  mass density: 1262.13 ± 1.3 kg/m3
323.37 K, 7299.5 kPa
  mass density: 1262.75 ± 1.3 kg/m3
323.37 K, 7358.7 kPa
  mass density: 1263.39 ± 1.3 kg/m3
323.37 K, 7415.2 kPa
  mass density: 1263.98 ± 1.3 kg/m3
323.37 K, 7474.7 kPa
  mass density: 1264.58 ± 1.3 kg/m3
323.37 K, 7531.4 kPa
  mass density: 1265.19 ± 1.3 kg/m3
323.37 K, 7588.8 kPa
  mass density: 1265.89 ± 1.3 kg/m3
323.37 K, 7648.3 kPa
  mass density: 1266.42 ± 1.3 kg/m3
323.37 K, 7707.1 kPa
  mass density: 1267.12 ± 1.3 kg/m3
323.37 K, 7764.7 kPa
  mass density: 1267.63 ± 1.3 kg/m3
323.37 K, 7823.9 kPa
  mass density: 1268.27 ± 1.3 kg/m3
323.37 K, 7882.7 kPa
  mass density: 1268.85 ± 1.3 kg/m3
323.37 K, 7940.4 kPa
  mass density: 1269.67 ± 1.3 kg/m3
323.37 K, 7995.5 kPa
  mass density: 1270.08 ± 1.3 kg/m3
323.37 K, 8048 kPa
  mass density: 1270.66 ± 1.3 kg/m3
323.37 K, 8125.8 kPa
  mass density: 1271.24 ± 1.3 kg/m3
323.37 K, 8203.2 kPa
  mass density: 1272.24 ± 1.3 kg/m3
323.37 K, 8277.9 kPa
  mass density: 1272.98 ± 1.3 kg/m3
323.37 K, 8354.3 kPa
  mass density: 1273.75 ± 1.3 kg/m3
323.37 K, 8407.9 kPa
  mass density: 1274.11 ± 1.3 kg/m3
323.37 K, 8486.2 kPa
  mass density: 1275.02 ± 1.3 kg/m3
323.37 K, 8565.3 kPa
  mass density: 1275.71 ± 1.3 kg/m3
323.37 K, 8644.1 kPa
  mass density: 1276.5 ± 1.3 kg/m3
323.37 K, 8721.2 kPa
  mass density: 1277.38 ± 1.3 kg/m3
323.37 K, 8795.7 kPa
  mass density: 1278.02 ± 1.3 kg/m3
323.37 K, 8871.5 kPa
  mass density: 1278.77 ± 1.3 kg/m3
323.37 K, 8923.6 kPa
  mass density: 1279.19 ± 1.3 kg/m3
323.37 K, 9000 kPa
  mass density: 1279.98 ± 1.3 kg/m3
323.37 K, 9075.8 kPa
  mass density: 1280.67 ± 1.3 kg/m3
323.37 K, 9128 kPa
  mass density: 1281.22 ± 1.3 kg/m3
323.37 K, 9181 kPa
  mass density: 1281.6 ± 1.3 kg/m3
323.37 K, 9257 kPa
  mass density: 1282.4 ± 1.3 kg/m3
323.37 K, 9330.9 kPa
  mass density: 1283.02 ± 1.3 kg/m3
323.37 K, 9404.8 kPa
  mass density: 1283.76 ± 1.3 kg/m3
323.37 K, 9479.6 kPa
  mass density: 1284.46 ± 1.3 kg/m3
323.37 K, 9533 kPa
  mass density: 1284.99 ± 1.3 kg/m3
323.37 K, 9609.3 kPa
  mass density: 1285.65 ± 1.3 kg/m3
323.37 K, 9682.9 kPa
  mass density: 1286.27 ± 1.3 kg/m3
323.37 K, 9757.3 kPa
  mass density: 1287.03 ± 1.3 kg/m3
323.37 K, 9833.2 kPa
  mass density: 1287.72 ± 1.3 kg/m3
323.37 K, 9909.3 kPa
  mass density: 1288.32 ± 1.3 kg/m3
323.37 K, 9986.3 kPa
  mass density: 1289.02 ± 1.3 kg/m3
328.21 K
  vapor or sublimation pressure: 1595.1 ± 2.9 kPa
333.21 K
  vapor or sublimation pressure: 1791.4 ± 3.2 kPa
338.18 K
  vapor or sublimation pressure: 2007.9 ± 3.6 kPa
343.18 K, 2257.1 kPa
  mass density: 1022.11 ± 1.1 kg/m3
343.18 K, 2260.4 kPa
  mass density: 1022.55 ± 1.1 kg/m3
343.18 K, 2263.3 kPa
  mass density: 1022.75 ± 1.1 kg/m3
343.18 K, 2269.6 kPa
  mass density: 1023.31 ± 1.1 kg/m3
343.18 K, 2279.2 kPa
  mass density: 1024.07 ± 1.1 kg/m3
343.18 K, 2287.2 kPa
  mass density: 1024.5 ± 1.1 kg/m3
343.18 K, 2297 kPa
  mass density: 1025.46 ± 1.1 kg/m3
343.18 K, 2306 kPa
  mass density: 1025.93 ± 1.1 kg/m3
343.18 K, 2314 kPa
  mass density: 1026.5 ± 1.1 kg/m3
